For this assay, the target named is mitochondrial respiratory complex II (succinate-ubiquinone oxidoreductase) (Rattus norvegicus, UniProt P21913+Q641Z9+Q6PCT8).

Each structure is given as a SMILES string.

Chain of mitochondrial respiratory complex II (succinate-ubiquinone oxidoreductase) (P21913 31-282): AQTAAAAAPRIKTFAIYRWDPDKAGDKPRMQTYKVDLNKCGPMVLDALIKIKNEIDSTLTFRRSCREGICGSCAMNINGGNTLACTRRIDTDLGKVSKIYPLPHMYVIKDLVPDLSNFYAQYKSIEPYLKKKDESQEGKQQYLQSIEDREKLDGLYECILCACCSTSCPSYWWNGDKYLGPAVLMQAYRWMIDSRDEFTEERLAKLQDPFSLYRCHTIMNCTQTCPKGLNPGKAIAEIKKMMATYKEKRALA
Chain of mitochondrial respiratory complex II (succinate-ubiquinone oxidoreductase) (Q641Z9 30-169): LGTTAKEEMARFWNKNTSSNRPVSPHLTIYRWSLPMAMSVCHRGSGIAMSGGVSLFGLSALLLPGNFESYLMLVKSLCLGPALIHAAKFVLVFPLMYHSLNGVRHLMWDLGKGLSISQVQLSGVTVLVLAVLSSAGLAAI
Chain of mitochondrial respiratory complex II (succinate-ubiquinone oxidoreductase) (Q6PCT8 57-159): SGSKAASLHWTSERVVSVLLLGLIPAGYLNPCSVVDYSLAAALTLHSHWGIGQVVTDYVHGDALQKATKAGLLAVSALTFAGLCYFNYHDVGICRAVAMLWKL
Chain of mitochondrial respiratory complex II (succinate-ubiquinone oxidoreductase) (Q920L2 35-656 partner): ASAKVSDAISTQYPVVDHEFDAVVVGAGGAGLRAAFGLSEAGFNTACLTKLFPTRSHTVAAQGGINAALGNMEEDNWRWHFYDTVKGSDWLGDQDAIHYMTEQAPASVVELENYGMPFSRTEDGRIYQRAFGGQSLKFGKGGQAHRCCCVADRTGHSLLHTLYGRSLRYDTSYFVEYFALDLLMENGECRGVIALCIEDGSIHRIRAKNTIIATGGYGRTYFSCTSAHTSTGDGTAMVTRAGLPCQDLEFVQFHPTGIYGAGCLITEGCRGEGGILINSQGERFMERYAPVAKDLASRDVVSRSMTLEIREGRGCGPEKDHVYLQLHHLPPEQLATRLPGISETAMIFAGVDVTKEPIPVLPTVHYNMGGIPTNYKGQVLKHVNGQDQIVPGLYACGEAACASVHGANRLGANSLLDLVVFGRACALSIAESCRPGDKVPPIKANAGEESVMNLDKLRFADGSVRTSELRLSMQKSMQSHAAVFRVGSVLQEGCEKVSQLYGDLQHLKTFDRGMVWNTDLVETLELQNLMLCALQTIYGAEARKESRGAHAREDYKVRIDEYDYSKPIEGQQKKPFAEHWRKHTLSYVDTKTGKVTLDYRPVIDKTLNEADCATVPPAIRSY

In turn, `COc1[nH]c(=O)c(C(=O)[C@@H](C)C[C@H](C)[C@@H](Cl)CCl)c(O)c1OC` [AA5, atpenin A5] yielded an IC50 of 8.3 nM.

The term IC50 denotes the concentration that gives 50% inhibition. Read a high IC50 as weaker potency.

Source of the values: publication PMC2776710 (Basic research in cardiology, 2009).
